Data set [1] has as its system K-562 cell line. In words: Intracellular 8-Cl-ATP/ATP by LC-MS/MS, K-562. The class given is cell-based. Conditions: for difference in intracellular accumulation of 8-Cl-ATP on inhibiting hENT1: K-562, with NBTI. How it is done: (§1) Cell lines with 3×10^6 cells/ml were used. Cells were treated with 1 μl of 20 μM of each 8-Cl-A, compound A, compound B and compound D and incubated for 2 hours at 37° C. with 5% CO2. After incubation, the cells were centrifuged (ambient, 1200 rpm, 5 minutes), the supernatant was removed, and the pellet was washed with lml of PBS and centrifuged (ambient, 1200 rpm, 5 minutes). The supernatant was removed, the pellet was reconstituted in 100 μl of PBS and 100 μl of 0.8M perchloric acid. This was then centrifuged (ambient, 1200 rpm, 5 minutes) and 180 μl of the supernatant was transferred to new tubes and stored at −80° C. until time of analysis.
(§2) For inhibitor studies the cell lines were treated in the same way as described above but before treatment with drugs, a number of inhibitors were added: • 1) Nitrobenzylthioinosine (NBTI) (Sigma-Aldrich, St. Louis, Mo.) inhibits hENT1. • 2) A-134974 dihydrochloride hydrate (Sigma-Aldrich, St. Louis, Mo.) inhibits adenosine kinase. • 3) EHNA hydrochloride (Sigma-Aldrich, St. Louis, Mo.) inhibits adenosine deaminase.
(§3) Cells were treated with 1 μl of 10 μM of each inhibitor and left for 5 minutes before adding the drug. The cells were then incubated for 2 hours at 37° C. with 5% CO2.
(§4) The analytes were resolved using an ultra-performance liquid chromatography system (Accela UPLC, Thermo Scientific, UK) equipped with a Biobasic A×5 μm, 50×2.1 mm column (Thermo Electron Corporation, Murrieta, Calif., USA) and mobile phase consisting of a mixture of 10 mM NH4Ac in ACN/H2O (30:70 v/v), pH6.0 (A), and 1 mM NH4Ac in ACN/H2O (30:70 v/v), pH10.5 (B). The mobile phase gradient was employed, comprising: buffer A=95% at 0-0.5 minutes, from 95 to 0% over 1.25 minutes, held at 0% for 1.75 minutes, from 0-95% over 0.1 minutes, ending with 95% for 2.9 minutes, all at a flow rate of 500 μl/min.
(§5) For compounds detection a triple stage quadrupole Vantage mass spectrometry system (Thermo Scientific, UK) equipped with an electrospray ion source was used. Samples were analysed in the Multiple Reaction Monitoring, negative ion modes at spray voltage 3000V.
(§6) The dose-response curves of cytotoxicity of the drugs was determined using non-linear regression analysis of percentage cell viability versus concentration and EC50 values were obtained. The intracellular assay was conducted in five repeats for each condition. Intracellular assay was determined using paired T test (two-tailed) analysis of 8-ChloroATP/ATP concentration and p values were obtained. Drug stability in human plasma was determined using two-way ANOVA analysis. For all the analysis, Prism Software program (GraphPad Software) was used.

Data set [2] deals with HL-60 cell line. The experiment in a line: Intracellular 8-Cl-ATP/ATP by LC-MS/MS, HL-60. It is filed as cell-based. Conditions: for difference in intracellular accumulation of 8-Cl-ATP on inhibiting hENT1: HL-60, with NBTI. Here is the method:
as §1, §2, §3, §4, §5, §6

Data set [3] has as its system PC3. In words: MTT cytotoxicity assay, PC3. As to conditions: Homo sapiens, PC-3, 96 h compound exposure, read-out: absolute IC50, PC3. It is filed as cell-based. The text has this: (§7) Lovo: cell line derived from a metastatic site in a patient with colon cancer MCF7: human oestrogen sensitive mammary epithelial cell line PC3: human prostate cancer cell line A549: cancerous lung tissue derived cells L1210: lymphoblast cell line derived from a mouse with lymphocytic leukaemia FM3A: mammary carcinoma murine cells CEM: human T-lymphoblasts, derived from the blood of a patient with acute lymphoblastic leukaemia HeLa: epithelial cells from a patient with cervical adenocarcinoma
(§8) Anti-tumour evaluation in MCF7, LoVo, A549 and PC3 cell lines was performed by MTT assay. Compounds were prepared as 0.1-100 mM stock solutions dissolved in DMSO and stored at −20° C. Cells were seeded into 96-well microtitre plates at a density of 5×10^3 cells per well and allowed 24 hours to adhere. Decimal compound dilutions were prepared in medium immediately prior to each assay (final concentration 0.1-100 μM). Experimental medium was DMEM+10% FCS (PC3 and Lovo) or RPMI+10% heat inactivated FCS (A549 and MCF7). Following 96 h compound exposure at 37° C., 5% CO2, MTT reagent (Sigma Aldrich) was added to each well (final concentration 0.5 mg/ml). Incubation at 37° C. for 4 h allowed reduction of MTT by viable cells to an insoluble formazan product. MTT was removed and formazan solubilised by addition of 10% Triton X-100 in PBS. Absorbance was read on a Tecan Sunrise spectrophotometer at 540 nm as a measure of cell viability; thus inhibition relative to control was determined (IC50).

Data set [4] deals with MCF7. The experiment in a line: MTT cytotoxicity assay, MCF7. It is filed as cell-based. Conditions: Homo sapiens, 96 h compound exposure, read-out: absolute IC50, MCF7.
Excerpt: as §7, §8

Data set [5] concerns T24/83. In words: Viability assay, T24/83. The class given is cell-based. Here is the method:
(§9) In vitro viability assay were performed to assess the effects of compounds on cell viability in selected cell lines over ˜72 hrs using the CellTiterGlo (CTG, Promega-G7573) assay. The tests were performed in duplicates with treatment of compounds at 9 points, 3.16 folds titration in 96 well plates over ˜72 hrs. The compound starting concentrations were 198 μM. Cell viability assay using CellTiterGlo in 96-well plate were performed. Compound treatment 72 hrs, standard growth conditions, duplicates. Compounds were dissolved to 40 mM with thawed […]. Compounds were serially diluted at 3.16 fold in thawed DMSO, and warmed to 37° C. before being dissolved in media (2 μl+200 μl). After compounds were dissolved in media, media containing compounds were warmed to 37° C. in incubator and then compounds in media were added to cell plates (50 μl+50 μl) in duplicates. The compounds' final concentrations were from […] to 19.9 nM. All compound solubilities were checked and recorded again, then the plates were transferred to CO2 tissue culture incubator immediately and incubated for 3 days. DMSO final concentration is 0.5%.

Data set [6] deals with FM3A. The experiment in a line: Cytotoxicity, FM3A. Conditions: Mus musculus, read-out: absolute IC50, FM3A. The class given is cell-based, murine.
Excerpt: as §7

In data set [7] the test system is CAL27. In words: Viability assay, CAL27. The class given is cell-based. Here is the method: as §9
The subject of data set [8] is MDAMB231. The experiment in a line: CellTiterGlo viability assay, MDAMB231. The class given is cell-based, Human. Conditions: for IC50: Homo sapiens, read-out: IC50 MDAMB231. Here is the method:
as §9

Read-outs that look alike come from different tables or passages of the source.

Regarding `C[C@H](NP(=O)(OC[C@H]1O[C@@H](n2c(Cl)nc3c(N)ncnc32)C(O)C1O)Oc1cccc2ccccc12)C(=O)OCc1ccccc1` (stereo partly drawn) [Compound D, (2S)-Benzyl 2-(((((2R,3S,4R,5R)-5-(6-amino-8-chloro-9H-purin-9-yl)-3,4-dihydroxy-tetrahydrofuran-2-yl)methoxynaphthalene-1-yloxy)phosphoryl)amino)propanoate], the “difference in intracellular accumulation of 8-Cl-ATP on inhibiting hENT1” value (shortened to “difference … on inhibiting hENT1”) in data set [1] and in data set [2] was “did not produce significant difference” each time.
Take `Nc1ncnc2c1nc(Cl)n2[C@@H]1O[C@H](CO)[C@@H](O)[C@H]1O` [8-chloroadenosine, 8-Chloroadenosine, reference compound]: the IC50 (as a rule, the concentration that gives 50% inhibition) in data set [3] lay within 0.1 to 5 µM; in data set [4], 0.1 to 5 µM; in data set [6], 0.1 to 5 µM; in data set [8] (MDA-MB-231, CellTiterGlo, 72 hrs), 0.1 to 5 µM. In data set [5], the “Top in. % T24/83” value worked out at 77.5%. Also, the EC50 in data set [5] (T24/83, read-out: Ab EC50 (μM) T24/83) came out at 2 µM; in data set [7] (Homo sapiens, CAL-27, read-out: Ab EC50 (μM) CAL27), 1.73 µM. In addition, in data set [7], the “Top in. % CAL27” value came to 76.5%. Besides, the “8-Cl-ATP/ATP ratio after inhibiting adenosine kinase” value is recorded as “almost zero” in data set [1] (K-562, with A-134974) and “almost zero” in data set [2] (HL-60, with A-134974). For the same molecule, the “MI% MDAMB231” value in data set [8] (CellTiterGlo, 72 hrs) amounted to 74%.
For `CC(C)C[C@H](NP(=O)(OC[C@H]1O[C@@H](n2c(Cl)nc3c(N)ncnc32)C(O)C1O)Oc1ccccc1)C(=O)OCc1ccccc1` (stereo partly drawn) [V, 5′-([(Benzyloxy-L-leucin-N-yl)-phenyl]-phosphatyl) 8-chloroadenosine], the IC50 in data set [3] lay in the range of 0.1 to 5 µM; in data set [4], 0.1 to 5 µM; in data set [6] it was 15 to 100 µM; in data set [8] (MDA-MB-231, 72 h) it was 15 to 100 µM. For the same molecule, in data set [8] (CellTiterGlo, 72 hrs), the “MI% MDAMB231” value was 99%.
In the case of `C[C@H](NP(=O)(OC[C@H]1O[C@@H](n2c(Cl)nc3c(N)ncnc32)[C@H](O)[C@@H]1O)Oc1ccccc1)C(=O)OCc1ccccc1` (mixture of isomers) [C, (2S)-Benzyl 2-(((((2R,3S,4R,5R)-5-(6-amino-8-chloro-9H-purin-9-yl)-3,4-dihydroxy-tetrahydrofuran-2-yl)methoxy)(phenoxy)phosphoryl)amino)propanoate], the half-inhibitory concentration (IC50) was in the range of 0.1 to 5 µM in data set [3], 15 to 100 µM in data set [4] and 15 to 100 µM in data set [6].
`Nc1ncnc2c1nc(Cl)n2[C@@H]1O[C@H](COP(=O)(NCC(=O)OCc2ccccc2)Oc2ccccc2)[C@@H](O)[C@H]1O` (mixture of isomers) [Compound B, Benzyl 2-(((((2R,3S,4R,5R)-5-(6-amino-8-chloro-9H-purin-9-yl)-3,4-dihydroxytetra-hydrofuran-2-yl)methoxy)(phenoxy)phosphoryl)amino)acetate]: the IC50 in data set [3] was in the range of 0.1 to 5 µM; in data set [4], 15 to 100 µM; in data set [6], 0.1 to 5 µM; in data set [8] (MDA-MB-231, 72 h), 5 to 15 µM. In addition, the “difference … on inhibiting hENT1” value in data set [1] and in data set [2] was “did not produce significant difference” each time. Moreover, the “MI% MDAMB231” value in data set [8] (CellTiterGlo, 72 hrs) came to 76%.
Regarding `Nc1ncnc2c1nc(Cl)n2[C@@H]1O[C@H](COP(=O)(NCC(=O)OC2CCCCC2)Oc2ccccc2)[C@@H](O)[C@H]1O` (mixture of isomers) [Compound A, Cyclohexyl 2-(((((2R,3S,4R,5R)-5-(6-amino-8-chloro-9H-purin-9-yl)-3,4-dihydroxy-tetrahydrofuran-2-yl)methoxy)(phenoxy)phosphoryl)amino)acetate], the 50% inhibitory concentration (IC50) in data set [3] is 15 to 100 µM; in data set [4], 15 to 100 µM; in data set [6] it was above 100 µM. The “difference in 8-Cl-ATP concentration on inhibiting adenosine kinase” value in data set [1] (K-562, with A-134974) was “did not produce significant difference”. Further, the “difference … on inhibiting hENT1” value in data set [1] and in data set [2] was “did not produce significant difference” throughout. Further, the “difference in intracellular accumulation of 8-Cl-ATP on blocking adenosine kinase” value in data set [2] (HL-60, with A-134974) is “did not produce significant difference”.
